Data: patent publication US20130273180A1, “SYSTEM AND METHOD FOR IMPROVING OUTCOME OF CEREBRAL ISCHEMIA” (priority 2012, published 2013)
“Also recorded” adds a separate entry of the source.

Key:
[1] = tested on: human with focal cerebral ischemia; experiment: CT perfusion scanning before and after intranasal nitric oxide in intubated patients with cerebral ischemia; type: in vivo
[2] = tested on: humans (normal volunteers); experiment: Tolerability of intranasal nitric oxide delivery in humans (normal volunteers); type: in vivo, human
Description: While nitric oxide may be given intranasally and without inhalation into the lungs to intubated, comatose individuals the tolerability of intranasal nitric oxide in awake humans has not previously been investigated. The inventors have tested the effect of nitric oxide in humans (normal volunteers) during intranasal delivery. […] Therefore it can easily be tolerated by awake, non-intubated patients.

[3] = tested on: intubated rodents, carotid artery occlusion model; experiment: Carotid artery occlusion model, Speckle laser Doppler, intubated rodents; type: in vivo
Protocol: (§1) In intubated rodents, the inventors have shown that cerebral blood flow increases by 100% within 60 minutes of intranasal nitric oxide delivery.
Increase in cerebral blood flow is attributable to focal intranasal or intra-oral effect of nitric oxide rather than to systemic absorption of the gas. […] The effect on cerebral blood flow during intranasal delivery of nitric oxide with concomitant air inhalation into the lungs is therefore a focal effect on intranasal and intracranial vasculature attributable specifically to nitric oxide. […] In a non-intubated patient, nitric oxide inhalation can be prevented by occluding the nasal cavity anterior or posterior to the site of gas delivery. This is achieved by means of an anterior occlusion device such a rigid member, an expandable member, a compressible member, a sponge, a porous member, a plug, a balloon, foam and/or combinations of the foregoing, which prevent inhalation through the nostrils while maintaining a high concentration of nitric oxide in the nasal cavity. A non-intubated patient may be allowed to inhale air into the lungs during nitric oxide delivery into the nasal cavity by an optional central lumen with the distal orifice beyond the sites of nasal gas delivery and occlusion device.

intubated rodents = experiment: Cerebral blood flow by cortical laser Doppler during intranasal nitric oxide in intubated rodents; type: in vivo
Protocol: as §1

[4] = Post Rx, one hour of intranasal non-inhaled nitric oxide

SMILES: [N]=O [nitric oxide]
- Cerebral Blood Flow, Changes in ACA Watershed ([1]; Post Rx): Normalization,
- Mean Transit Time, Changes in ACA Watershed ([1]; Post Rx): Normalization
- increase in perfusion on L (ACA Watershed) ([1]; Post Rx versus Pre Rx, ischemic left hemisphere): 67% increase in
- Cerebral Blood Flow, Left Hemisphere (ischemic) [1, 4]: 52
- Cerebral Blood Flow, Right Hemisphere (normal) [1, 4]: 45
- Mean Transit Time, Left Hemisphere (ischemic) [1, 4]: 6.0 s
- Mean Transit Time, Right Hemisphere (normal) [1, 4]: 6.1 s
- cerebral perfusion on CT perfusion scan ([1]; before and after treatment, human with focal cerebral ischemia): improvement; also recorded: augmentation of cerebral perfusion and normalization of regional perfusion abnormalities
- sensation during intranasal delivery ([2]; concentrations up to 100 PPM, normal volunteers): does not elicit any sensation
- tolerability of gas treatment ([2]; high concentration, delivered intra-nasally and without inhalation): tolerated
- cerebral ischemia (FIG. 9) ([3]; Speckle laser Doppler tracing, intubated rodents): reduction
- perfusion in the ischemic hemisphere ([3]; during the carotid occlusion and following ligature release): improved
- cerebral blood flow (FIG. 8) (intubated rodents; cortical laser Doppler, during intranasal administration): doubling
- cerebral blood flow increase (intubated rodents; within 60 minutes of intranasal delivery, non-inhaled): 100%
